Measured values reported in patent publication US9944654B2, “Nargenicin compounds and uses thereof as antibacterial agents” (priority 2014, dated 2018).
In brackets after ≈: the same amount, converted by molar mass. Where two headings read alike, the source gives them in different places.

Columns and labels:
[1] = target: T1, E. coli DnaE (DNA polymerase III α-subunit from Escherichia coli) (Escherichia coli, UniProt P10443); experiment: In vitro DnaE single enzyme assay (E. coli); assay type: biochemical
T1 construct: EcDnaE (E. coli DnaE residues 1-1160); 6xHis (N); made in house; host or cells: E. coli BL21(DE3)
T1 sequence (P10443 whole entry, the tested form may be a part): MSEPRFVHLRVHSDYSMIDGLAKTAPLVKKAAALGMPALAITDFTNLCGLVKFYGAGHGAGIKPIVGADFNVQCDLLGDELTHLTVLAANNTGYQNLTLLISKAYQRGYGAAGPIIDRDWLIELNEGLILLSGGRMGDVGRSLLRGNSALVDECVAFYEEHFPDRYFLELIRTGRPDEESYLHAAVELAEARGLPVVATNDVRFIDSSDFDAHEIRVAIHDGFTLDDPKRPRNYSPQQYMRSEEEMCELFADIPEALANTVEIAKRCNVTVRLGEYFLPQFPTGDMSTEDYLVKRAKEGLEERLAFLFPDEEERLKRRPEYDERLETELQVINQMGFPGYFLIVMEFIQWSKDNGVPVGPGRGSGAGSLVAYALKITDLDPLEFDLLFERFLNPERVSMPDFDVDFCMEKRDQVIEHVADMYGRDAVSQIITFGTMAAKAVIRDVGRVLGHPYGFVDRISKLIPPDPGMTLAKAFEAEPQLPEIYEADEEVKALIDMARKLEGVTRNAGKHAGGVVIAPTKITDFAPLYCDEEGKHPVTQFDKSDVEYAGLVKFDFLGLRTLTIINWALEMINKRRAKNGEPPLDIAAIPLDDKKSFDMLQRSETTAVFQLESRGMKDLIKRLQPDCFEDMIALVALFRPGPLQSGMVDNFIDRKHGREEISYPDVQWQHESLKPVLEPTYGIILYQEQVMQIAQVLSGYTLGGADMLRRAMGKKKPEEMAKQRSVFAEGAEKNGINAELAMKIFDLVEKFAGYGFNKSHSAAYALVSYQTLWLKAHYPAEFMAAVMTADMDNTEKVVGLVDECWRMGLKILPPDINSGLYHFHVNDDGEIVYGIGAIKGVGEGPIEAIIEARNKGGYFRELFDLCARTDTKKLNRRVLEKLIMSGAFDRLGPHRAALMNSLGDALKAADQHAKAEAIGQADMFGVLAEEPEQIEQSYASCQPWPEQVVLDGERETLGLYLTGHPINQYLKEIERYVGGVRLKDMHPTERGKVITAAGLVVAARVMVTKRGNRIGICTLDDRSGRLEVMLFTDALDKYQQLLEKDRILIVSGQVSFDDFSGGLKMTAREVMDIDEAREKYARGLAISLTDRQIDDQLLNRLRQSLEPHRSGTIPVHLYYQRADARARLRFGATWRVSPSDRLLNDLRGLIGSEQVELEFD
In short: (§1)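 His-tagged E. coli DnaE (residues 1-1160, 0.8 μg/ml) or S. aureus DnaE (residues 1-1065, 0.05 μg/ml) incubated 30 min at 30° C. with activated calf thymus DNA, 0.025 mM dATP/dGTP/dCTP and 0.011 mM 3H-dTTP in Tris pH 7.5/Mg acetate. TCA-precipitated labelled DNA counted.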

[2] = target: T2, S. aureus DnaE (DNA polymerase III α-subunit homolog from Staphylococcus aureus) (Staphylococcus aureus, UniProt Q5HF71); experiment: biochemical; assay type: biochemical
T2 construct: SaDnaE (S. aureus DnaE residues 1-1065); 6xHis (N); made in house; host or cells: E. coli BL21-AI
T2 sequence (Q5HF71 1-1065): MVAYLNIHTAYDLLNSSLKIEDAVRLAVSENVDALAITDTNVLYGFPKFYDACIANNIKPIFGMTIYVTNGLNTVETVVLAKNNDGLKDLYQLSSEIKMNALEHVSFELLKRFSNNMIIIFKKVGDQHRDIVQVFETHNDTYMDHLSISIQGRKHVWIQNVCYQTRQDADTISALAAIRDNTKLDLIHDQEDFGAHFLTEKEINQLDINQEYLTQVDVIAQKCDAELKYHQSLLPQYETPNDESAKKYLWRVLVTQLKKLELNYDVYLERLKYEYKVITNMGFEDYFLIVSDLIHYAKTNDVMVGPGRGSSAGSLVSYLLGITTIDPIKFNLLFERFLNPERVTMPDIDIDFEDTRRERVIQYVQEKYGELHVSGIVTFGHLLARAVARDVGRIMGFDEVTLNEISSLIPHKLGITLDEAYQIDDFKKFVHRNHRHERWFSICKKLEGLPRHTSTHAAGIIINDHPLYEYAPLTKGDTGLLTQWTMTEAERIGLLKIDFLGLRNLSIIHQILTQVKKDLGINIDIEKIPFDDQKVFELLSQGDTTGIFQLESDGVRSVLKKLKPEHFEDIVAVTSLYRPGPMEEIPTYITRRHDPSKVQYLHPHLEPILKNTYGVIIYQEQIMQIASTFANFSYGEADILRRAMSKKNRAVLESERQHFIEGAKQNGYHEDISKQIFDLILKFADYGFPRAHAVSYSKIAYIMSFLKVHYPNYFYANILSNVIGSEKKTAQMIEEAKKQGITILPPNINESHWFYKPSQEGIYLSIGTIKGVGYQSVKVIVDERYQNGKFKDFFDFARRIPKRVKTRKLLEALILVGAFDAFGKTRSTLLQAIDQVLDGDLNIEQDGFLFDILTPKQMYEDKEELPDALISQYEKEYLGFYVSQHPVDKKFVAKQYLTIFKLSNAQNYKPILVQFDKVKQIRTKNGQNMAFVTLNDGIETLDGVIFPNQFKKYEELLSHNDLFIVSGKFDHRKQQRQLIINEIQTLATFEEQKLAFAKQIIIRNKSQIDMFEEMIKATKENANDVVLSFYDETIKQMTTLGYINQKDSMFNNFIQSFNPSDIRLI
In short: as §1

[3] = test system: Escherichia coli MB5747 (LS 883, tolC); experiment: microbe, parasite or virus in culture; assay type: cell-based; settings: Escherichia coli, read-out: E. coli LS883 tolC (MIC), MHII broth; * = some reduction of growth versus control at […]
[4] = test system: Pseudomonas aeruginosa MB5890 (CB1101, efflux-deleted); experiment: microbe, parasite or virus in culture; assay type: cell-based; settings: Pseudomonas aeruginosa, read-out: P. aeruginosa MB5890 efflux-del (MIC), MHII broth; * = some reduction of growth versus control at […]
[5] = test system: Staphylococcus aureus MB6266 (MRSA COL); experiment: Nargenicin antibacterial assay (MIC), S. aureus; assay type: cell-based; settings: Staphylococcus aureus, MRSA, read-out: S. aureus COL (MIC), MHII broth + 50% human serum; * = some reduction of growth versus control at […]
[6] = test system: Streptococcus pneumoniae MB6357 (CL 2883); experiment: Nargenicin antibacterial assay (MIC), S. pneumoniae; assay type: cell-based; settings: Streptococcus pneumoniae, read-out: S. pneumoniae MB2883 (MIC), Isosensitest broth; * = some reduction of growth versus control at […]
[7] = read-out: E. coli DnaE IC50 (converted)

Row | Compound | IC50 ([1]; E. coli DnaE IC50) [µM] | IC50 ([2]; read-out: S. aureus DnaE IC50 (converted)) [µM] | MIC [3] [µg/mL] | MIC [4] [µg/mL] | MIC [5] [µg/mL] | MIC [6] [µg/mL] | IC50 [1, 7] [µM] | IC50 ([2]; S. aureus DnaE IC50) [µM]
1 | CO[C@H]1C[C@H]2C=C[C@H]3[C@H]4O[C@]2(/C(C)=C/[C@@H](C)[C@@H]([C@@H](C)O)OC1=O)[C@@H]3C(=O)C(C)[C@H]4C#N (stereo partly drawn) [Example 176, (3R,4 S ,7S ,8aS ,10aR,11R,12S ,14aR,14b S,E)-4-((R)-1-hydroxyethyl)-7-methoxy-1,3,13-trimethyl-6,14-dioxo-3,4,6,7,8,8a,10a,11,12,13,14,14a-dodecahydro-11,14b-epoxynaphtho[2,1-e]oxecine-12-carbonitrile] | > 233 | 25.6 | > 128 | > 128 | > 128 | > 128 | – | –
2 | CO[C@H]1CC2C=C[C@H]3[C@H]4O[C@]2(/C(C)=C/[C@@H](C)[C@@H](C(C)=O)OC1=O)[C@@H]3[C@H](O)[C@@H](C)[C@H]4OC(=O)c1ccc[nH]1 (stereo partly drawn) [Example 177] | – | – | 0.5 (≈ 0.974 µM) | 8 (≈ 15.6 µM) | 1 | > 128 | 8.76 | < 0.0117
3 | C=CC[C@@H]1C(C)[C@@H](O)[C@@H]2[C@H]3C=C[C@@H]4C[C@H](OC)C(=O)O[C@H]([C@@H](C)O)[C@H](C)/C=C(\C)[C@@]24O[C@H]31 (stereo partly drawn) [Example 179, (3R,4S,7S,8aS,10aR,11S,12R,14R,14aS,14bS,E)-12-allyl-14-hydroxy-4-((R)-1-hydroxyethyl)-7-methoxy-1,3,13-trimethyl-3,4,8,8a,10a,11,12,13,14,14a-decahydro-11,14b-epoxynaphtho[2,1-e]oxecin-6(7H)-one] | – | – | 64 (≈ 143 µM) | > 64 | > 64 | 64 (≈ 143 µM) | > 112 | 29.1
4 | CO[C@H]1CC2C=C[C@H]3[C@H]4O[C@]2(/C(C)=C/[C@@H](C)[C@@H](/C(C)=N\O)OC1=O)[C@@H]3[C@H](O)[C@@H](C)[C@H]4OC(=O)c1ccc[nH]1 (stereo partly drawn) [Example 180] | – | – | 4 (≈ 7.57 µM) | 64 (≈ 121 µM) | 4 | 32 (≈ 60.5 µM) | 11.4 | < 0.0114
5 | CO[C@H]1C[C@H]2CC(=O)[C@H]3[C@H]4O[C@]2(/C(C)=C/[C@@H](C)[C@@H]([C@@H](C)O)OC1=O)[C@@H]3[C@H](O)[C@@H](C)[C@H]4OC(=O)c1ccc[nH]1 [Example 181] | – | – | 8 (≈ 15 µM) | 32 (≈ 60.2 µM) | 64 | > 128 | > 188 | 0.0941
6 | CO[C@H]1C[C@H]2C(=O)C[C@H]3[C@H]4O[C@]2(/C(C)=C/[C@@H](C)[C@@H]([C@@H](C)O)OC1=O)[C@@H]3[C@H](O)[C@@H](C)[C@H]4OC(=O)c1ccc[nH]1 [Example 182] | – | – | 8 (≈ 15 µM) | 32 (≈ 60.2 µM) | 32 | > 128 | > 188 | 0.0376
7 | CO[C@H]1CC2C=C[C@H]3[C@H]4O[C@]2(/C(C)=C/[C@@H](C)[C@@H](C(C)NC2CC2)OC1=O)[C@@H]3[C@H](O)[C@@H](C)[C@H]4OC(=O)c1ccc[nH]1 (stereo partly drawn) [Example 185] | – | – | > 128 | > 128 | > 128 | > 128 | > 180 | < 0.0108
8 | CO[C@H]1C[C@H]2C=C[C@H]3[C@H]4O[C@]2(/C(C)=C/[C@@H](C)[C@@H]([C@@H](C)O)OC1=O)[C@@H]3[C@H](O)[C@@H](C)[C@H]4OC(C)=O [Example 186] | – | – | 4 (≈ 8.61 µM) | 16 (≈ 34.4 µM) | 8 | > 128 | 64.6 | ~0.00969
9 | CO[C@H]1C[C@H]2C=C[C@H]3[C@H]4O[C@]2(/C(C)=C/[C@@H](C)[C@@H]([C@@H](C)O)OC1=O)[C@@H]3[C@H](OC(N)=O)[C@@H](C)[C@H]4O [Example 187] | – | – | 16 (≈ 34.4 µM) | 32 (≈ 68.7 µM) | > 128 | > 128 | > 215 | 0.387
10 | CO[C@H]1C[C@H]2C=C[C@H]3[C@H]4O[C@]2(/C(C)=C/[C@@H](C)[C@@H]([C@@H](C)O)OC1=O)[C@@H]3[C@H](O)C(C)[C@H]4C#N (stereo partly drawn) [Example 188, (3R,4S,7S,8aS,10aR,11R,12S,14R,14aS,14bS,E)-14-hydroxy-4-((R)-1-hydroxyethyl)-7-methoxy-1,3,13-trimethyl-6-oxo-3,4,6,7,8,8a,10a,11,12,13,14,14a-dodecahydro-11,14b-epoxynaphtho[2,1-e]oxecine-12-carbonitrile] | – | – | 32 (≈ 74.2 µM) | 64 (≈ 148 µM) | 128 | 128 (≈ 297 µM) | > 232 | 0.232
11 | CC[C@H]1OC(=O)[C@@H](OC)C[C@H]2C=C[C@H]3[C@H]4O[C@]2(/C(C)=C/[C@H]1C)[C@@H]3[C@H](O)C(C)[C@H]4C#N (stereo partly drawn) [Example 189, (3R,4R,7S,8aS,10aR,11R,12S,14R,14aS,14bS,E)-4-ethyl-14-hydroxy-7-methoxy-1,3,13-trimethyl-6-oxo-3,4,6,7,8,8a,10a,11,12,13,14,14a-dodecahydro-11,14b-epoxynaphtho[2,1-e]oxecine-12-carbonitrile] | – | – | > 128 | > 128 | > 128 | > 128 | > 241 | 144
12 | CO[C@H]1C[C@H]2[C@H](O)C[C@H]3[C@H]4O[C@]2(/C(C)=C/[C@@H](C)[C@@H]([C@@H](C)O)OC1=O)[C@@H]3[C@H](O)[C@@H](C)[C@H]4OC(=O)c1ccc[nH]1 [Example 191] | – | – | 128 (≈ 240 µM) | > 128 | > 128 | > 128 | > 187 | 7.5
13 | CO[C@H]1C[C@H]2C[C@H](O)[C@H]3[C@H]4O[C@]2(/C(C)=C/[C@@H](C)[C@@H]([C@@H](C)O)OC1=O)[C@@H]3[C@H](O)[C@@H](C)[C@H]4OC(=O)c1ccc[nH]1 [Example 192] | – | – | > 128 | > 128 | > 128 | > 128 | > 187 | 18.7
14 | CO[C@H]1C[C@H]2[C@@H](O)C[C@H]3[C@H]4O[C@]2(/C(C)=C/[C@@H](C)[C@@H]([C@@H](C)O)OC1=O)[C@@H]3[C@H](O)[C@@H](C)[C@H]4OC(=O)c1ccc[nH]1 [Example 193] | – | – | 64 (≈ 120 µM) | > 128 | > 128 | > 128 | > 187 | 1.87
15 | CO[C@H]1C[C@H]2C[C@@H](O)[C@H]3[C@H]4O[C@]2(/C(C)=C/[C@@H](C)[C@@H]([C@@H](C)O)OC1=O)[C@@H]3[C@H](O)[C@@H](C)[C@H]4OC(=O)c1ccc[nH]1 [Example 194] | – | – | 128 (≈ 240 µM) | > 128 | > 128 | > 128 | > 187 | 9.37
16 | CO[C@H]1C[C@H]2C=C[C@H]3[C@H]4O[C@]2(/C(C)=C/[C@@H](C)[C@@H]([C@@H](C)O)OC1=O)[C@@H]3[C@H](O)[C@@H](C)[C@H]4OC(=O)c1cccn1C [Example 196] | – | – | 64 (≈ 121 µM) | > 128 | > 128 | 128 (≈ 242 µM) | > 189 | 9.82
